Assay results reported in patent publication US8906826B2, “Herbicidal compositions comprising 4-amino-3-chloro-5-fluoro-6-(4-chloro-2-fluoro-3-methoxyphenyl) pyridine-2-carboxylic acid or a derivative thereof and imidazolinones” (Dow AgroSciences, LLC, priority 2012, dated 2014).

Columns and labels:
ECHCO = experiment: Postemergence foliar-applied, direct seeded rice weeds (Example I); type: in vivo, Echinochloa colona (L.) Link
Text: (§1) Seeds or nutlets of the desired test plant species were planted in a soil matrix prepared by mixing a loam or sandy loam soil (e.g., 28.6 percent silt, 18.8 percent clay, and 52.6 percent sand, with a pH of about 5.8 and an organic matter content of about 1.8 percent) and calcareous grit in an 80 to 20 ratio. The soil matrix was contained in plastic pots with a volume of 1 quart and a surface area of 83.6 cm^2. When required to ensure good germination and healthy plants, a fungicide treatment and/or other chemical or physical treatment was applied. The plants were grown for 8-22 days in a greenhouse with an approximate 14 h photoperiod which was maintained at about 29° C. during the day and 26° C. during the night. Nutrients (Peters Excel® 15-5-15 5-Ca 2-Mg and iron chelate) were applied in the irrigation solution as needed and water was added on a regular basis. Supplemental lighting was provided with overhead metal halide 1000-Watt lamps as necessary. The plants were employed for testing when they reached the first through fourth true leaf stage.
(§2) Treatments consisted of the acid or esters of 4-amino-3-chloro-5-fluoro-6-(4-chloro-2-fluoro-3-methoxy-phenyl)pyridine-2-carboxylic acid (Compound A), each formulated as an SC (suspension concentrate), and various herbicidal components alone and in combination. Forms of compound A were applied on an acid equivalent basis.
(§3) Other herbicidal components were applied on an acid equivalent basis and include acetolactate synthase (ALS)-inhibiting herbicides (imidazolinone chemical class) imazethapyr ammonium salt formulated as Newpath®, imazamox ammonium salt formulated as Beyond®, imazapic ammonium salt formulated as Plateau®, imazapyr isopropylamine salt formulated as Arsenal®, imazamethabenz-methyl (technical material) and imazaquin isopropylamine salt formulated as Scepter®/Imagine®.
(§4) Treatment requirements were calculated based upon the rates being tested, the concentration of active ingredient or acid equivalent in the formulation, and a 12 mL application volume at a rate of 187 L/ha.
For treatments comprised of formulated compounds, measured amounts of compounds were placed individually in 25 mL glass vials and diluted in a volume of 1.25% (v/v) Agri-Dex® crop oil concentrated to obtain 12× stock solutions. […]
(§5) For treatments comprised of formulated and technical compounds, weighed amounts of the technical materials were placed individually in 25 mL glass vials and dissolved in a volume of 97:3 v/v acetone/DMSO to obtain 12× stock solutions, and measured amounts of the formulated compounds were placed individually in 25 mL glass vials and diluted in a volume of 1.5% (v/v) crop oil concentrate or water to obtain 12× stock solutions. […]

LEFCH = experiment: In-water applied, transplanted paddy rice weeds (Example II); type: in vivo, Leptochloa chinensis (L.) Nees
Procedure: Weed seeds or nutlets of the desired test plant species were planted in puddled soil (mud) prepared by mixing a shredded, non-sterilized mineral soil (50.5 percent silt, 25.5 percent clay, and 24 percent sand, with a pH of about 7.6 and an organic matter content of about 2.9 percent) and water at a 1:1 volumetric ratio. The prepared mud was dispensed in 365 mL aliquots into 16-ounce (oz.) non-perforated plastic pots with a surface area of 86.59 square centimeters (cm^2) leaving a headspace of 3 centimeters (cm) in each pot. Mud was allowed to dry overnight prior to planting or transplanting. Rice seeds were planted in Sun Gro MetroMix® 306 planting mixture, which typically has a pH of about 6.0 to about 6.8 and an organic matter content of about 30 percent, in plastic plug trays. Seedlings at the second or third leaf stage of growth were transplanted into 860 mL of mud contained in 32-oz. non-perforated plastic pots with a surface area of 86.59 cm^2 4 days prior to herbicide application. The paddy was created by filling the headspace of the pots with 2.5 to 3 cm of water. When required to ensure good germination and healthy plants, a fungicide treatment and/or other chemical or physical treatment was applied. The plants were grown for 4-22 days in a greenhouse with an approximate 14 h photoperiod which was maintained at about 29° C. during the day and about 26° C. during the night. Nutrients were added as Osmocote® (19:6:12, N:P:K+minor nutrients) at 2 g per 16-oz. pot and 4 g per 32-oz. pot. Water was added on a regular basis to maintain the paddy flood, and supplemental lighting was provided with overhead metal halide 1000-Watt lamps as necessary. The plants were employed for testing when they reached the first through fourth true leaf stage.
Treatments consisted of the acid or esters of 4-amino-3-chloro-5-fluoro-6-(4-chloro-2-fluoro-3-methoxy-phenyl)pyridine-2-carboxylic acid (compound A) each formulated as an SC and various herbicidal components alone and in combination. Forms of compound A were applied on an acid equivalent basis. […]
Treatment requirements for each compound or herbicidal component were calculated based upon the rates being tested, the concentration of active ingredient or acid equivalent in the formulation, an application volume of 2 mL per component per pot, and an application area of 86.59 cm^2 per pot.
For formulated compounds, a measured amount was placed in an individual 100 or 200 mL glass vial and was dissolved in a volume of 1.25% (v/v) Agri-Dex® crop oil concentrate to obtain application solutions. […]

IPOHE = experiment: Postemergence foliar-applied, direct seeded rice weeds (Example I); type: in vivo, Ipomoea hederacea Jacq.
Text: as §1, §2, §3, §4
For treatments comprised of formulated compounds, measured amounts of compounds were placed individually in 25 mL glass vials and diluted in a volume of 1.25% (v/v) Agri-Dex® crop oil concentrated to obtain 12× stock solutions. […] Application solutions were prepared by adding an appropriate amount of each stock solution (e.g., 1 mL) and diluted to the appropriate final concentrations with the addition of 10 mL of an aqueous mixture of 1.25% (v/v) crop oil concentrate so that the final spray solutions contained 1.25+/−0.05% (v/v) crop oil concentrate.
For treatments comprised of technical compounds, weighed amounts can be placed individually in 25 mL glass vials and dissolved in a volume of 97:3 v/v acetone/DMSO to obtain 12× stock solutions. […] Application solutions can be prepared by adding an appropriate amount of each stock solution (e.g., 1 mL) and diluted to the appropriate final concentrations with the addition of 10 mL of an aqueous mixture of 1.5% (v/v) crop oil concentrate so that the final spray solutions contain 1.25% (v/v) crop oil concentrate. When technical materials are used, the concentrated stock solutions can be added to the spray solutions so that the final acetone and DMSO concentrations of the application solutions are 16.2% and 0.5%, respectively.
as §5

[1] = Compound A Benzyl Ester 8.75 gae/ha

SMILES: Cc1cnc(C2=NC(C)(C(C)C)C(=O)N2)c(C(=O)O)c1.N (racemic) [Imazapic ammonium, ammonium (±)-2-[4,5-dihydro-4-methyl-4-(1-methylethyl)-5-oxo-1H-imidazol-2-yl]-5-methyl-3-pyridinecarboxylic acid]
- Visual Weed Control (%) - 25 DAA ECHCO Obs (ECHCO; Imazapic ammonium 17.5 gae/ha): 70%

SMILES: CCc1cnc(C2=NC(C)(C(C)C)C(=O)N2)c(C(=O)O)c1.N (racemic) [Imazethapyr ammonium, ammonium (±)-2-[4,5-dihydro-4-methyl-4-(1-methylethyl)-5-oxo-1H-imidazol-2-yl]-5-ethyl-3-pyridinecarboxylate]
- Visual Weed Control (%) - 25 DAA LEFCH Obs (LEFCH; Imazethapyr ammonium 8.75 gae/ha): 0%
- Visual Weed Control (%) - 25 DAA LEFCH Obs (LEFCH; Imazethapyr ammonium 17.5 gae/ha): 0%
- Visual Weed Control (%) - 25 DAA LEFCH Obs (LEFCH; Imazethapyr ammonium 35 gae/ha): 95%

SMILES: COc1c(Cl)ccc(-c2nc(C(=O)O)c(Cl)c(N)c2F)c1F [Compound A Acid, 4-amino-3-chloro-6-(4-chloro-2-fluoro-3-methoxyphenyl)-5-fluoropyridine-2-carboxylic acid]
- Visual Weed Control (%) - 25 DAA ECHCO Obs (ECHCO; Compound A Acid 4.38 gae/ha): 60%
- Visual Weed Control (%) - 25 DAA ECHCO Obs (ECHCO; Compound A Acid 8.75 gae/ha): 65%
- Visual Weed Control (%) - 25 DAA ECHCO Obs (ECHCO; Compound A Acid 17.5 gae/ha): 90%
- Visual Weed Control (%) - 21 DAA IPOHE Obs (IPOHE; Compound A Acid 4.38 gae/ha): 0%
- Visual Weed Control (%) - 21 DAA IPOHE Obs (IPOHE; Compound A Acid 8.75 gae/ha): 10%
- Visual Weed Control (%) - 21 DAA IPOHE Obs (IPOHE; Compound A Acid 17.5 gae/ha): 30%

SMILES: COc1c(Cl)ccc(-c2nc(C(=O)OCc3ccccc3)c(Cl)c(N)c2F)c1F [Compound A Benzyl Ester, benzyl ester of 4-amino-3-chloro-5-fluoro-6-(4-chloro-2-fluoro-3-methoxy-phenyl)pyridine-2-carboxylic acid]
- Visual Weed Control (%) - 21 DAA IPOHE Obs (IPOHE; Compound A Benzyl Ester 4.38 gae/ha): 0%
- Visual Weed Control (%) - 21 DAA IPOHE Obs (IPOHE; [1]): 10%
- Visual Weed Control (%) - 21 DAA IPOHE Obs (IPOHE; Compound A Benzyl Ester 17.5 gae/ha): 25%
- Visual Weed Control (%) - 25 DAA LEFCH Obs (LEFCH; [1]): 0%
